pEC50: −log10 of the molar value.
Molecular target: T1, human iGluR4 (Homo sapiens, UniProt P48058)
T1 construct: expressed in transfected cells; host or cells: HEK293
Assay: Whole-cell voltage clamp potentiation of currents evoked by 1 mM glutamate in HEK293 cells stably expressing human iGluR4
Assay type: cell-based
Conditions: HEK293 cells stably expressing human iGluR4, voltage-clamped at -60mV, concentration increased in half log units, fit to the Hill equation
Source text: HEK293 cells stably expressing human iGluR4 (obtained as described in European Patent Application Publication No. EP-A1-0583917) are used in the electrophysiological characterization of AMPA receptor potentiators. The extracellular recording solution contains (in mM): 140 NaCl, 5 KCl, 10 HEPES, 1 MgCl2, 2 CaCl2, 10 glucose, pH = 7.4 with NaOH, 295 mOsm kg-1. The intracellular recording solution contains (in mM): 140 CsCl, 1 MgCl2, 10 HEPES, (N-[2-hydroxyethyl]piperazine-N1-[2-ethanesulfonic acid]) 10 EGTA (ethylene-bis(oxyethylene-nitrilo)tetraacetic acid), pH = 7.2 with CsOH, 295 mOsm kg-1. With these solutions, recording pipettes have a resistance of 2-3 MΩ. […] Responses to 1 mM glutamate are then determined in the presence of test compound. […]
In order to determine the potency of test compounds, the concentration of the test compound, both in the bathing solution and co-applied with glutamate, is increased in half log units until the maximum effect was seen. […] Reversibility of test compound activity is determined by assessing control glutamate 1mM responses. Once the control responses to the glutamate challenge are re-established, the potentiation of these responses by 100 µM cyclothiazide is determined by its inclusion in both the bathing solution and the glutamate-containing solution. In this manner, the efficacy of the test compound relative to that of cyclothiazide can be determined.

T1 sequence (P48058 21-902): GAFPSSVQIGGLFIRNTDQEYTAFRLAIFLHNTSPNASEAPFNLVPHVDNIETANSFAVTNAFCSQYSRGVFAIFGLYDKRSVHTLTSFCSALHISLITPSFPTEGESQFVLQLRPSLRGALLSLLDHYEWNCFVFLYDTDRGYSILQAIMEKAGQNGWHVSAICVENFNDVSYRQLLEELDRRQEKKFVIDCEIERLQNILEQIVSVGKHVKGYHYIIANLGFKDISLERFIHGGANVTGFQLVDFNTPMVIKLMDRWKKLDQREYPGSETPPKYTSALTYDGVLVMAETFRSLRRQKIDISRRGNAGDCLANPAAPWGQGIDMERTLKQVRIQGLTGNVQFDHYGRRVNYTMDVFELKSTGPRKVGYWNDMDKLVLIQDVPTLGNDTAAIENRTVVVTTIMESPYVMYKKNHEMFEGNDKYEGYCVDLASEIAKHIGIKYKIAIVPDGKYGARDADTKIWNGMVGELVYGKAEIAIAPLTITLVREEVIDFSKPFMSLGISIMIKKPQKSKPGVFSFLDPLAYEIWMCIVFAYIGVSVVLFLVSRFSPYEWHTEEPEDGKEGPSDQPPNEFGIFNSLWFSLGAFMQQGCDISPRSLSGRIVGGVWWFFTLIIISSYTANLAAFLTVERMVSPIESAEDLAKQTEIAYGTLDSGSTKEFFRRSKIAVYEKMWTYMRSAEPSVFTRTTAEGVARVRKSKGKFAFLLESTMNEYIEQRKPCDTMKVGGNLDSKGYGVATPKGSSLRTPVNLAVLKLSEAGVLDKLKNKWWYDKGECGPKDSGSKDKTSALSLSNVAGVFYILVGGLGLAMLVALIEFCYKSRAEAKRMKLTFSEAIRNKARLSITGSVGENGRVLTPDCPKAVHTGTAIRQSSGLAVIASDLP

`CC(C)S(=O)(=O)Nc1ccccc1-c1ccc(-c2ccc(-c3nnn[nH]3)cc2)cc1` [Example 77, Propane-2-sulfonic acid [4"-(1H-tetrazol-5-yl)-[1,1';4',1"]terphenyl-2-yl]-amide] was tested, and the pEC50 was 6.35.

— patent EP1893597B1, “AMPA RECEPTOR POTENTIATORS” (ELI LILLY AND COMPANY, priority 2005, dated 2006)
